Assay results published in patent US9359371B2, “Bicyclic substituted pyrimidine compounds” (Xuanzhu Pharma Co., Ltd., priority 2012, dated 2016).
Where two headings read alike, the source gives them in different places.

Columns and labels:
[1] = molecular target: PDE-5A enzyme (Homo sapiens (Human), UniProt O76074); assay: Caliper Mobility-Shift PDE-5A Assay; format: biochemical; details: Table 1; Avanafil value is the control
Experimental: Experiment 1: Measurement of Enzymatic Activity In Vitro
PDE-5A enzyme: humanized PDE-5 enzyme, SignalChem, Cat#93-31G-20.
Method: enzyme assay, Caliper Mobility-Shift PDE-5A Assay:
The test compound was accurately weighed, dissolved in DMSO, mixed thoroughly and formulated into 10 mM.
The maximum final concentration of the compound was 10 μM. The plate was incubated at 30° C. for 1 h, and 20 μL of 70 μM EDTA was then added to stop the reaction. 26 μL of solution of each well was transferred to a 384-well plate. The conversion was read on a EZ reader II. The inhibition rate was calculated by the formula below, and used to calculate IC50 by Prism 5.0 Inhibition rate=[Conversion (ZPE)−Conversion (sample)]×100/[Conversion (ZPE)−Conversion (HPE)]
Note: HPE: control without enzyme; ZPE: control without a test compound

[2] = Pharmacokinetics (PK) in SD rats; format: in vivo; details: rat; for half-life / bioavailability / AUC(0-inf) / Cmax / Tmax: SD, plasma; for bioavailability: read-out: F % (absolute bioavailability)
Experimental: Experiment 9: Assay of Pharmacokinetics (PK) of the Compounds of the Present Invention in SD Rats
Compound 1-54 of the present invention were prepared by the methods described in Example 1 to Example 54 of the present invention.
The control drug Avanafil, of which the structure was stated above, was purchased commercially.
Collection of the rat's blood: The animal was fixed. The tail was warmed with a water bath 10 min before the collection time. About 200 μL of whole blood was collected from the tail vein. The collected blood was collected into anticoagulant tubes containing heparin sodium. The blood samples were centrifuged at 4° C. by 8000 rpm for 6 min to give the plasma samples, which should be prepared within 30 min after the collection of blood. The plasma samples were stored in a freezer of −80° C. until test.
The result output by Analyst 1.5.1 of AB Company was used as the concentration of the tested sample (plasma sample). The mean value, standard deviation, variable coefficient and the like were calculated by Microsoft Excel (except for the result directly output by Analyst 1.5.1). Parameters of PK were calculated by Pharsight Phoenix 6.2 software. Formula for calculating oral bioavailability: F %=AUCinf−po*Doseiv/AUCinf−iv*Dosepo.

[3] = po, intragastric administration, 2 mg/kg
[4] = po, intragastric administration, 5 mg/kg

`COc1ccc(CNc2nc(N3CCC4(CC4)C3)ncc2C(=O)N[C@H]2CC[C@H](O)CC2)cc1Cl` (stereo in doubt) [Compound 43, 4-((3-chloro-4-methoxybenzyl)amino)-N-(trans-4-hydroxycyclohexyl)-2-(5-azaspiro[2.4]heptan-5-yl)pyrimidine-5-formamide] showed an IC50 [1] of 15.4 nM, a half-life [2, 3] of 3.31 h and a bioavailability [2, 3] of 18%. It also gave a half-life ([2]; intravenous injection, 1 mg/kg) of 1.3 h, a Cl_obs ([2]; intravenous injection, 1 mg/kg) of 53.8 mL/min/kg and a Vss_obs ([2]; intravenous injection, 1 mg/kg) of 5.18 L/kg.

Work on `COc1ccc(CNc2nc(N3CC4CC4C3)ncc2C(=O)NCc2ccccn2)cc1Cl` (stereo not drawn) [Compound 2, 2-(3-azabicyclo[3.1.0]hexan-3-yl)-4-((3-chloro-4-methoxybenzyl)amino)-N-(pyridin-2-ylmethyl)pyrimidine-5-formamide] yielded an AUC(0-inf) [2, 3] of 69 ng·h/mL, a Cmax [2, 3] of 12 ng/mL and a Tmax [2, 3] of 1 h. It also gave a half-life [2, 3] of 2.95 h, a bioavailability [2, 3] of 12% and an AUC(0-inf) ([2]; intravenous injection, 1 mg/kg) of 219 ng·h/mL. For the same molecule, the half-life ([2]; intravenous injection, 1 mg/kg) was 1.78 h, the Cl_obs ([2]; intravenous injection, 1 mg/kg) was 77.2 mL/min/kg and the Vss_obs ([2]; intravenous injection, 1 mg/kg) was 10.57 L/kg.

Molecule `COc1ccc(CNc2nc(N3CCC4(CC3)CC4)ncc2C(=O)NCc2ncccn2)cc1Cl` [Compound 15, 4-((3-chloro-4-methoxybenzyl)amino)-N-(pyrimidin-2-ylmethyl)-2-(6-azaspiro[2.5]octan-6-yl)pyrimidine-5-formamide] has an IC50 [1] of 26.8 nM.

In the case of `COc1ccc(CNc2nc(N3CCC4(CC4)C3)ncc2C(=O)NCc2ccccc2)cc1Cl` [Compound 21, N-benzyl-4-((3-chloro-4-methoxybenzyl)amino)-2-(5-azaspiro[2.4]heptan-5-yl)pyrimidine-5-formamide], the IC50 [1] is reported as 17.3 nM.

`COc1ncc(CNc2nc(N3CC4CC4C3)ncc2C(=O)NCc2ncccn2)cc1Cl` (stereo not drawn) [Compound 25, 2-(3-diazabicyclo[3.1.0]hexan-3-yl)-4-(((5-chloro-6-methoxypyridin-3-yl)methyl)amino)-N-(pyrimidin-2-ylmethyl)pyrimidine-5-formamide] showed an IC50 [1] of 47 nM.

`COc1ccc(CNc2nc(N3CC4CC4C3CO)ncc2C(=O)NCc2ncccn2)cc1Cl` (stereo not drawn) [Compound 27, 4-((3-chloro-4-methoxybenzyl)amino)-2-(2-(hydroxylmethyl)-3-azabicyclo[3.1.0]hexan-3-yl)-N-(pyrimidin-2-ylmethyl)pyrimidine-5-formamide] showed an IC50 [1] of 10.4 nM.

Molecule `COc1ccc(CNc2nc(N3CCC4(CCC4)C3)ncc2C(=O)NCc2ccccc2)cc1Cl` [Compound 28, N-benzyl-4-((3-chloro-4-methoxybenzyl)amino)-2-(6-azaspiro[3.4]octan-6-yl)pyrimidine-5-formamide] has an IC50 [1] of 22.6 nM.

Work on `COc1ccc(CNc2nc(N3CC4CC4C3CO)ncc2C(=O)NCCN2CCOCC2)cc1Cl` (stereo not drawn) [Compound 34, 4-((3-chloro-4-methoxybenzyl)amino)-2-(2-(hydroxymethyl)-3-azabicyclo[3.1.0]hexan-3-yl)-N-(2-morpholinoethyl)pyrimidine-5-formamide] yielded an IC50 [1] of 34.9 nM.

In the case of `COc1ccc(CNc2nc(N3CC4CC4C3CO)ncc2C(=O)N[C@H]2CC[C@H](O)CC2)cc1Cl` (stereo partly drawn) [Compound 35, 4-((3-chloro-4-methoxybenzyl)amino)-N-(trans-4-hydroxycyclohexyl)-2-(2-(hydroxymethyl)-3-azabicyclo[3.1.0]hexan-3-yl)pyrimidine-5-formamide], the IC50 [1] is reported as 47.2 nM.

Work on `COc1ccc(CNc2nc(N3CCC4(CC3)CC4)ncc2C(=O)N[C@H]2CC[C@H](O)CC2)cc1Cl` [Compound 36, 4-((3-chloro-4-methoxybenzyl)amino)-N-(trams-4-hydroxycyclohexyl)-2-(6-azaspiro[2.5]octan-6-yl)pyrimidine-5-formamide] yielded an IC50 [1] of 52.4 nM.

`COc1ccc(CNc2nc(N3CC4CC4C3CO)ncc2C(=O)NCc2ccccn2)cc1Cl` (stereo not drawn) [Compound 37, 4-((3-chloro-4-methoxybenzyl)amino)-2-(2-(hydroxymethyl)-3-azabicyclo[3.1.0]hexan-3-yl)-N-(pyridin-2-ylmethyl)pyrimidine-5-formamide] gave an IC50 [1] of 33.3 nM.

Work on `COc1ccc(CNc2nc(N3CCC4(CC4)C3)ncc2C(=O)NCCN2CCOCC2)cc1Cl` [Compound 39, 4-((3-chloro-4-methoxybenzyl)amino)-N-(2-morpholinoethyl)-2-(5-azaspiro[2.4]heptan-5-yl)pyrimidine-5-formamide] yielded an IC50 [1] of 21.4 nM.

Molecule `CCOc1ccc(CNc2nc(N3CC4CC4C3)ncc2C(=O)N[C@H]2CC[C@H](O)CC2)cc1F` (stereo partly drawn) [Compound 49, 2-(3-azabicyclo[3.1.0]hexan-3-yl)-4-((3-fluoro-4-ethoxybenzyl)amino)-N-((trans)-4-hydroxycyclohexyl)pyrimidine-5-formamide] has an AUC(0-inf) [2, 4] of 5840 ng·h/mL, a Cmax [2, 4] of 505 ng/mL and a Tmax [2, 4] of 4 h. For the same molecule, the half-life [2, 4] was 4.1 h, the bioavailability [2, 4] was 60% and the AUC(0-inf) ([2]; intravenous injection, 2 mg/kg) was 3860 ng·h/mL. For the same molecule, the half-life ([2]; intravenous injection, 2 mg/kg) was 3.9 h, the Cl_obs ([2]; intravenous injection, 2 mg/kg) was 8.67 mL/min/kg and the Vss_obs ([2]; intravenous injection, 2 mg/kg) was 2.46 L/kg.

`CCOc1ccc(CNc2nc(N3CC4CC4C3)ncc2C(=O)N[C@H]2CC[C@H](O)CC2)cc1C` (stereo partly drawn) [Compound 51, 2-(3-azabicyclo[3.1.0]hexan-3-yl)-N-(trans-4-hydroxycyclohexyl)-4-((4-ethoxy-3-methylbenzyl)amino)pyrimidine-5-formamide] gave an AUC(0-inf) [2, 4] of 5800 ng·h/mL, a Cmax [2, 4] of 402 ng/mL and a Tmax [2, 4] of 6 h. For the same molecule, the half-life [2, 4] was 7.3 h, the bioavailability [2, 4] was 52% and the AUC(0-inf) ([2]; intravenous injection, 2 mg/kg) was 4400 ng·h/mL. The half-life ([2]; intravenous injection, 2 mg/kg) was 8.8 h, the Cl_obs ([2]; intravenous injection, 2 mg/kg) was 7.83 mL/min/kg and the Vss_obs ([2]; intravenous injection, 2 mg/kg) was 5.58 L/kg.

Molecule `CCOc1ccc(CNc2nc(N3CC4CC4C3)ncc2C(=O)N[C@H]2CC[C@H](O)CC2)cc1Cl` (stereo partly drawn) [Compound 52, 2-(3-azabicyclo[3.1.0]hexan-3-yl)-4-((3-chloro-4-ethoxybenzyl)amino)-N-((trans)-4-hydroxycyclohexyl)pyrimidine-5-formamide] has an AUC(0-inf) [2, 4] of 6000 ng·h/mL, a Cmax [2, 4] of 392 ng/mL and a Tmax [2, 4] of 6 h. The half-life [2, 4] was 8.4 h, the bioavailability [2, 4] was 65% and the AUC(0-inf) ([2]; intravenous injection, 2 mg/kg) was 3710 ng·h/mL. It also gave a half-life ([2]; intravenous injection, 2 mg/kg) of 4.6 h, a Cl_obs ([2]; intravenous injection, 2 mg/kg) of 9 mL/min/kg and a Vss_obs ([2]; intravenous injection, 2 mg/kg) of 3.02 L/kg.

`COc1ccc(CNc2nc(N3CC4CC4C3)ncc2C(=O)N[C@H]2CC[C@H](O)CC2)cc1C(F)(F)F` (stereo partly drawn) [Compound 53, 2-(3-azabicyclo[3.1.0]hexan-3-yl)-N-((trans)-4-hydroxycyclohexyl)-4-((4-methoxy-3-(trifluoromethyl)benzyl)amino)pyrimidine-5-formamide] showed an AUC(0-inf) [2, 4] of 917 ng·h/mL, a Cmax [2, 4] of 156 ng/mL and a Tmax [2, 4] of 4 h. For the same molecule, the bioavailability [2, 4] was 25%, the AUC(0-inf) ([2]; intravenous injection, 2 mg/kg) was 1500 ng·h/mL and the half-life ([2]; intravenous injection, 2 mg/kg) was 1.8 h. The Cl_obs ([2]; intravenous injection, 2 mg/kg) was 22.3 mL/min/kg and the Vss_obs ([2]; intravenous injection, 2 mg/kg) was 2.33 L/kg.

With `CCOc1ccc(CNc2nc(N3CC4CC4C3)ncc2C(=O)N[C@H]2CC[C@H](O)CC2)cc1C(F)(F)F` (stereo partly drawn) [Compound 54, 2-(3-azabicyclo[3.1.0]hexan-3-yl)-N-((trans)-4-hydroxycyclohexyl)-4-((4-ethoxy-3-(trifluoromethyl)benzyl)amino)pyrimidine-5-formamide] the AUC(0-inf) [2, 4] was 1420 ng·h/mL, the Cmax [2, 4] was 200 ng/mL and the Tmax [2, 4] was 4 h. The half-life [2, 4] was 2.7 h, the bioavailability [2, 4] was 40% and the AUC(0-inf) ([2]; intravenous injection, 2 mg/kg) was 1430 ng·h/mL. For the same molecule, the half-life ([2]; intravenous injection, 2 mg/kg) was 2.3 h, the Cl_obs ([2]; intravenous injection, 2 mg/kg) was 23.8 mL/min/kg and the Vss_obs ([2]; intravenous injection, 2 mg/kg) was 3.87 L/kg.
